Test results: PMC7983974 (Basic & Clinical Pharmacology & Toxicology, 2020)
Several values for one entry are separate records, joined by “and”; a condition that tells them apart may be missing. Equal values may be shown once. Read-outs that look alike come from different tables or passages of the source.

Legend:
[1] = system: molidustat glucuronidation (clearance); test: In vitro-in vivo scaling: predicted increase in molidustat AUC; set-up: species or system human; conditions: based on mass balance study, no differentiation UGT1A1/UGT1A9
[2] = type: in vivo, human; conditions: for Point estimate parameter ratio, AUC / Point estimate parameter ratio, AUC(0‐tlast) / Point estimate parameter ratio, C max: (Molidustat + atazanavir)/molidustat, ANOVA
UGT1A10 = molecular target: T1, UGT1A10 (Homo sapiens, UniProt Q9HAW8); test: M1 formation from molidustat by recombinant UGT1A10; type: in vitro ADME; conditions: 1 and 10 µmol L^−1
T1 sequence (Q9HAW8 26-530): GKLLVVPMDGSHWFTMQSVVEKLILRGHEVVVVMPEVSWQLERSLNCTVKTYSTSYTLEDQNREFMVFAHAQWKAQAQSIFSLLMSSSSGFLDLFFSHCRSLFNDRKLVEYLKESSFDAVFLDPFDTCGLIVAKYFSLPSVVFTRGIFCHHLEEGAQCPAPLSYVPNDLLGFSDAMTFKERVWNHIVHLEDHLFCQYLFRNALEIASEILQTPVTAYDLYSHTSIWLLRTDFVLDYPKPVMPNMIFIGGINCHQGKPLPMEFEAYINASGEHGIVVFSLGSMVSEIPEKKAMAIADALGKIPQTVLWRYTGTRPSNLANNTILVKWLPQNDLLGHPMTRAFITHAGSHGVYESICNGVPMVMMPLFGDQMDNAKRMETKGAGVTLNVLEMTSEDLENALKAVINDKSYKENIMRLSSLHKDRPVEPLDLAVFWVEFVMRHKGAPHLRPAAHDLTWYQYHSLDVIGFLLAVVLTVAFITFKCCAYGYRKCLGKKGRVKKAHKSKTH

UGT1A4 = molecular target: T2, UGT1A4 (Homo sapiens, UniProt P22310); test: M1 formation from molidustat by recombinant UGT1A4; type: in vitro ADME; conditions: 1 and 10 µmol L^−1
T2 sequence (P22310 29-534): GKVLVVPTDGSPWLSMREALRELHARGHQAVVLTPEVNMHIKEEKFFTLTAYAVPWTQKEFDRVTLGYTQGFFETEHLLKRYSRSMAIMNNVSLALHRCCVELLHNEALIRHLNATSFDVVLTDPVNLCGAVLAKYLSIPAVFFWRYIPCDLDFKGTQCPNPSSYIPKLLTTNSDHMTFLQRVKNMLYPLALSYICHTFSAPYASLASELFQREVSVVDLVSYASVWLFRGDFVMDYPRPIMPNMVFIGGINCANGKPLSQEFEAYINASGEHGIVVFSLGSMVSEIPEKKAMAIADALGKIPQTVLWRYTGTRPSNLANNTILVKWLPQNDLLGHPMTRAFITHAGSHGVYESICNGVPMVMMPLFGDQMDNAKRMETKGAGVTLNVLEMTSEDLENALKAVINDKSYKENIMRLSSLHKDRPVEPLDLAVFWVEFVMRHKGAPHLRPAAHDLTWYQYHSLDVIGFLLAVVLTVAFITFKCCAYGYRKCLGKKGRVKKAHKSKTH

[3] = human, cited from earlier work; for absolute oral bioavailability: oral (IR tablet)
UGT2B17 = molecular target: T3, UGT2B17 (Homo sapiens, UniProt O75795); test: M1 formation from molidustat by recombinant UGT2B17; type: in vitro ADME; conditions: 1 and 10 µmol L^−1
T3 sequence (O75795 24-530): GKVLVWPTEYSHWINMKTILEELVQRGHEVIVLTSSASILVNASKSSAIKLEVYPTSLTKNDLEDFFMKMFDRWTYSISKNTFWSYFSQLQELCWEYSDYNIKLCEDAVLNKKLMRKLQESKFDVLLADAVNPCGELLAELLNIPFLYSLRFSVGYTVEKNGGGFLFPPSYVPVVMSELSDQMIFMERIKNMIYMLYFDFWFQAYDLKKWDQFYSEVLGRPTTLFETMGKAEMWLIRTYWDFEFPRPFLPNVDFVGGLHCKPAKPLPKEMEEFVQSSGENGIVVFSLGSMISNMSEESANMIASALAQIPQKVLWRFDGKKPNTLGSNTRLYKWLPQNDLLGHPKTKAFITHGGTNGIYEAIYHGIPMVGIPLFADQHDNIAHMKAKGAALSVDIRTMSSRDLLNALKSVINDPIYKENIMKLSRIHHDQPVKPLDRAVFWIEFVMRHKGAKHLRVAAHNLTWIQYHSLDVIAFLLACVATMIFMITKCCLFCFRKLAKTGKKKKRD

UGT2B15 = molecular target: T4, UGT2B15 (Homo sapiens, UniProt P54855); test: M1 formation from molidustat by recombinant UGT2B15; type: in vitro ADME; conditions: 1 and 10 µmol L^−1
T4 sequence (P54855 24-530): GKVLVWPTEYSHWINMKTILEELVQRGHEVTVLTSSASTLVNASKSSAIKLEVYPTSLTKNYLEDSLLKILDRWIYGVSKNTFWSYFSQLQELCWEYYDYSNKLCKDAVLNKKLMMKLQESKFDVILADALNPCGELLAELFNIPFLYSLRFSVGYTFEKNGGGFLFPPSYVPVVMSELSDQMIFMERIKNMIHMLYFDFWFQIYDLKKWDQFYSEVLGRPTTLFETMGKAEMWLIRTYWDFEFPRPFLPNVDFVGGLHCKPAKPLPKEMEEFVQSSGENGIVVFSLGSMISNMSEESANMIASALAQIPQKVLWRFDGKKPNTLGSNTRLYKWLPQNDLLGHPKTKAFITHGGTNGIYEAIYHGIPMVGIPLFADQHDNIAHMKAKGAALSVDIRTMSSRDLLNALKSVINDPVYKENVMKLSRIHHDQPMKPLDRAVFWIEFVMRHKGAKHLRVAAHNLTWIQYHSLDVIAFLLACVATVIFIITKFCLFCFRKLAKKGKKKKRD

[4] = Clinical DDI study: safety and tolerability; type: in vivo, human; conditions: n = 14
HIF‐PH (EC 1.14.11.29) = conditions: cited from earlier work
[5] = male, human, plasma, oral, 25 mg

Fraction metabolized via total glucuronidation (fm) [1]: ~ 0.9 and 0.9 | Point estimate parameter ratio, AUC [2]: 2.0665 | Point estimate parameter ratio, AUC(0‐tlast) [2]: 2.0766 | Point estimate parameter ratio, C max [2]: 2.0689 | Point estimate parameter ratio, AUC ([2]; listed as molidustat): 2.07 and 2 | Point estimate parameter ratio, AUC(0‐tlast) ([2]; listed as molidustat): 2.08 | Point estimate parameter ratio, C max ([2]; listed as molidustat): 2.07 | increase in exposure for molidustat with concomitant atazanavir ([2]; AUC, AUC(0‐t last), C max): approximately 100% | half-life [2, 5]: 6.3 h | t max [2, 5]: 0.75 h | activity for glucuronidation of molidustat (UGT1A10): lacked measurable activity | activity for glucuronidation of molidustat (UGT1A4): lacked measurable activity | activity for glucuronidation of molidustat (UGT2B17): lacked measurable activity | activity for glucuronidation of molidustat (UGT2B15): lacked measurable activity
SMILES: O=c1c(-n2ccnn2)c[nH]n1-c1cc(N2CCOCC2)ncn1 [Molidustat]
absolute oral bioavailability [3]: about 60% | absolute oral bioavailability ([3]; listed as molidustat): 59% | fraction of the dose excreted as molidustat via faeces [3]: ~ 6% | fraction of the dose excreted as molidustat via urine [3]: ~ 4% | Abdominal pain (participants with TEAE) [4]: 0 n (%) | Headache (participants with TEAE) [4]: 0 n (%) | Participants with ≥ 1 TEAE [4]: 0 n (%) | Jaundice (participants with TEAE) ([4]; considered related to atazanavir): 0 n (%) | inhibition of HIF‐PH (HIF‐PH (EC 1.14.11.29)): nanomolar concentration range
